Source: PubChem BioAssay AID1918931 (Molecular Pharmacology Branch, DTP, NCI, 2023)
Values joined by “and” are separate entries in the source; they are usually repeats but may differ in a detail not shown here. Equal values may be shown once.

Test system: 138582-337-R-J1-PDC complex spheroid viability
Experiment: Anticancer human tumor 138582-337-R-J1-PDC patient-derived Merkel cell tumor cell line growth inhibition
Settings: for viability, T/C: stronger effect = lower value; for IC50: curve of compound
Excerpt: Multicellular complex tumor spheroid response to LSD1 Inhibitor Iadademstat in combination with a variety of drugs and investigational agents in selected tumor cell lines
The current study was undertaken to assess response to LSD1 inhibitors in combination with standard-of-care drugs and investigational agents in solid tumor complex spheroid models as well as in the K-562 leukemia. Complex spheroids include a stromal component modeled by human endothelial cells (HUVEC) and fibroblasts modeled by human mesenchymal stem cells (MSCs). The concentration ranges selected for each drug and investigational agent were based upon clinically achievable concentrations if the clinical Cmax of the agent was known.
Compounds. The drugs and investigational agents used in this study are listed on Table 1. All of the agents used, including staurosporine (NSC755774) and gemcitabine (NSC613327), were obtained from the Developmental Therapeutics Program, NCI. FDA-approved anticancer drugs are available from the NCI at http://dtp.nci.nih.gov/branches/dscb/oncology_drugset_explanation.html. Drugs and investigational agents were >95% pure by proton nuclear magnetic resonance (NMR) and liquid chromatography/mass spectrometry (LC/MS). Stock solutions were prepared at 400x in DMSO, stored at -70 degrees C, and diluted in fresh medium prior to their use. The final concentration of DMSO in cell culture wells never exceeded 0.25% (v/v). The FDA-approved anticancer drug set is available from the Developmental Therapeutics Program at https://dtp.cancer.gov/organization/dscb/obtaining/available_plates.htm. All drugs and investigational agents were tested over a range starting from a high concentration at or near the clinical Cmax and decreasing in half-log increments. If the clinical Cmax for an agent had not been determined, the highest concentration tested was 10 microM.
Cell Lines. The patient-derived cancer cell (PDC) lines: 292921-168-R-J2-PDC, K24384-001-R-PDC, and 521955-158-R2-J5-PDC pancreatic carcinomas, 556581-035-R-J1 ovarian carcinoma, 324938-238-R-J1-PDC, 855422-203-R-J1-PDC and 883617-216-R-J1-PDC urothelial bladder carcinomas, 743489-274-T-PDC renal cell carcinoma, 138582-R-J1 Merkel cell tumor, K60290-347-R-J1 and K57222-313-R-J1-PDC glioblastomas, 653999-131-R-J2-PDC, LG0703-F948-PDC, and 349418-098-R-PDC non-small cell lung carcinomas, 885512-296-R-J2-PDC, 171881-019-R-J1-PDC breast carcinomas and 186277-243-T-J2-PDC and 233499-124-R-J2-PDC colon carcinomas were obtained from the NCI Patient-Derived Models Repository (PDMR, https://pdmr.cancer.gov). The established cell lines NCI/ADR-RES (RRID:CVCL_14520 and OVCAR-5 (RRID:CVCL_1628) ovarian carcinomas, 786-O (RRID:CVCL_1051) and A498 (RRID:CVCL_A498) renal cell carcinoma, NCI-H211 (ATCC, cat. CRL-5824; RRID:CVCL_1529), NCI-H196 (ATCC, cat. CRL-5823, RRID:CVCL_1509), SW 1271 (ATCC, cat. CRL-2177, RRID:CVCL_1716) and NCI-H1876 (ATCC, cat. CRL-5902, RRID:CVCL_1503) small cell lung carcinomas, MDA-MB-231 (RRID:CVCL_0062) and MDA-MB-468 (RRID:CVCL_0419)breast carcinomas (10-12). Pooled donor human umbilical vein endothelial cells (HUVEC, Lonza, cat. CC-2519) and human mesenchymal stem cells (hMSC, Lonza, cat. PT-2501) were purchased from Lonza (Walkersville, MD).
Cell Culture. All cells were maintained in an incubator at 37 degrees C and 5% CO2 with 95% humidity. The PDC lines were cultured according to standard operating procedures established by the NCI PDMR (https://pdmr.cancer.gov). Briefly all PDCs were thawed and cultured in Matrigel-coated flasks prepared with a working solution of 1X Ham's F-12 nutrient mix, without supplementation (Invitrogen, Waltham, MA, cat. 11765054), 100 U/mL penicillin-streptomycin (Invitrogen, cat. 15140122), and 2.5% Matrigel (Corning Inc., Corning, NY, cat. 354248) for the first three passages. […]
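Also: spheroids exposed to agents for 7 days.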
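For viability, T/C in this document: 100% = DMSO vehicle control viability.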

For `CC(C)CC(NC(=O)C(Cc1ccccc1)NC(=O)c1cnccn1)B(O)O` (centres undefined), the viability, T/C (compound 0.000316 µM) was 116% and 74.5%, the viability, T/C (compound 0.00316 µM) was 0.75% and 0.32% and the viability, T/C (compound 0.01 µM) was 0.21% and 0.23%. The viability, T/C (compound 0.0316 µM) was 0.25% and 0.21%, the viability, T/C (compound 0.1 µM) was 0.37% and 0.28% and the IC50 was 0.922 nM and 0.463 nM.
`CC(C)CC(NC(=O)CNC(=O)c1cc(Cl)ccc1Cl)B1OC(=O)CC(CC(=O)O)(C(=O)O)O1` (centres undefined) was tested, and the viability, T/C (compound 0.000316 µM) was 105% and 94.4%, the viability, T/C (compound 0.001 µM) was 102% and 99.3% and the viability, T/C (compound 0.00316 µM) was 110% and 91.3%. The viability, T/C (compound 0.01 µM) was 30.4% and 42.1%, the viability, T/C (compound 0.0316 µM) was 4.94% and 1.75% and the viability, T/C (compound 0.1 µM) was 0.38% and 0.44%. The IC50 was 7.41 nM and 8.3 nM.
With `CC(C)c1c(-c2ccccc2)nc2c(C#N)c[nH]n2c1=O` the viability, T/C (compound 0.0316 µM) was 106% and 89.1%, the viability, T/C (compound 0.1 µM) was 92.4% and 85.5% and the viability, T/C (compound 0.316 µM) was 92.8% and 89.8%. The viability, T/C (compound 1 µM) was 97.1% and 71.4%, the viability, T/C (compound 3.16 µM) was 84.7% and 52.7% and the viability, T/C (compound 10 µM) was 85.2% and 40.5%. The IC50 was > 10000 nM and 3700 nM.
With `CC1(C)CCC(CN2CCN(c3ccc(C(=O)NS(=O)(=O)c4ccc(NCC5CCOCC5)c([N+](=O)[O-])c4)c(Oc4cnc5[nH]ccc5c4)c3)CC2)=C(c2ccc(Cl)cc2)C1` the viability, T/C (compound 0.0316 µM) was 95.7% and 61.2%, the viability, T/C (compound 0.1 µM) was 95.8% and 70.4% and the viability, T/C (compound 0.316 µM) was 89.5% and 69.6%. For the same compound, the viability, T/C (compound 1 µM) was 101% and 73.5%, the viability, T/C (compound 3.16 µM) was 101% and 55.5% and the IC50 was > 10000 nM and 3560 nM.
`CC1COCCN1c1cc(-c2ccnn2C)c2ccnc(-c3ccn[nH]3)c2n1` (centres undefined) was tested, and the viability, T/C (compound 0.00316 µM) was 76.4% and 67.9%, the viability, T/C (compound 0.01 µM) was 86.4% and 64.7% and the viability, T/C (compound 0.0316 µM) was 69.7% and 48.6%. For the same compound, the viability, T/C (compound 0.1 µM) was 61% and 34.3%, the viability, T/C (compound 0.316 µM) was 61% and 28.5% and the viability, T/C (compound 1 µM) was 39.8% and 25.1%.
For `CC1COCCN1c1cc(C2(S(C)(=N)=O)CC2)nc(-c2ccnc3[nH]ccc23)n1` (centres undefined), the viability, T/C (compound 0.0316 µM) was 91.2% and 97.8%, the viability, T/C (compound 0.1 µM) was 85.4% and 99.9% and the viability, T/C (compound 0.316 µM) was 88.4% and 81.3%. For the same compound, the viability, T/C (compound 1 µM) was 83.1% and 59.1%, the viability, T/C (compound 3.16 µM) was 68.1% and 46.4% and the viability, T/C (compound 10 µM) was 45.8% and 38.9%. For the same compound, the IC50 was 8040 nM and 2070 nM.
In the case of `CCN(c1cc(-c2ccc(CN3CCOCC3)cc2)cc(C(=O)NCc2c(C)cc(C)[nH]c2=O)c1C)C1CCOCC1`, the viability, T/C (compound 0.00949 µM) is reported as 86.8% and 93.2%, the viability, T/C (compound 0.03 µM) is reported as 103% and 81.7% and the viability, T/C (compound 0.0949 µM) is reported as 82.1% and 70.6%. For the same compound, the viability, T/C (compound 0.3 µM) was 95.9% and 76.5%, the viability, T/C (compound 0.949 µM) was 95.5% and 69.7% and the viability, T/C (compound 3 µM) was 99.3% and 57.8%. The IC50 was over 3000 nM.
`CC[C@@]1(O)C(=O)OCc2c1cc1n(c2=O)Cc2cc3c(CN(C)C)c(O)ccc3nc2-1` was tested, and the viability, T/C (compound 0.000316 µM) was 91% and 92.2%, the viability, T/C (compound 0.001 µM) was 103% and 101% and the viability, T/C (compound 0.00316 µM) was 77.7% and 62.7%. For the same compound, the viability, T/C (compound 0.01 µM) was 83.7% and 57.4%, the viability, T/C (compound 0.0316 µM) was 95% and 57.3% and the viability, T/C (compound 0.1 µM) was 85.6% and 47.7%. It also gave an IC50 of over 100 nM.
With `CCc1c2c(nc3ccc(O)cc13)-c1cc3c(c(=O)n1C2)COC(=O)[C@]3(O)CC` the viability, T/C (compound 0.000949 µM) was 71.5% and 50.2%, the viability, T/C (compound 0.003 µM) was 68.2% and 39% and the viability, T/C (compound 0.00949 µM) was 48.7% and 26.2%. The viability, T/C (compound 0.03 µM) was 11.6% and 0.27%, the viability, T/C (compound 0.0949 µM) was 0.5% and 0.83% and the viability, T/C (compound 0.3 µM) was 0.52% and 0.33%. The IC50 was 8.76 nM and < 0.949 nM.
For `COc1cc(C2c3cc4c(cc3C(OC3OC5COC(C)OC5C(O)C3O)C3COC(=O)C23)OCO4)cc(OC)c1O` (centres undefined), the viability, T/C (compound 0.00949 µM) was 81.8% and 78.6%, the viability, T/C (compound 0.03 µM) was 73.6% and 82.9% and the viability, T/C (compound 0.0949 µM) was 78% and 57.8%. The viability, T/C (compound 0.3 µM) was 77.3% and 50.9%, the viability, T/C (compound 0.949 µM) was 73.4% and 48.3% and the viability, T/C (compound 3 µM) was 74.7% and 34.3%. For the same compound, the IC50 was > 3000 nM and 359 nM.
With `COc1cc(Nc2ncc3c(n2)-c2ccc(Cl)cc2C(c2c(F)cccc2OC)=NC3)ccc1C(=O)O` the viability, T/C (compound 0.00316 µM) was 102% and 63.7%, the viability, T/C (compound 0.01 µM) was 82.4% and 67.3% and the viability, T/C (compound 0.0316 µM) was 76.8% and 63.6%. For the same compound, the viability, T/C (compound 0.1 µM) was 84.4% and 66.4%, the viability, T/C (compound 0.316 µM) was 79.4% and 61.6% and the viability, T/C (compound 1 µM) was 80.4% and 43.7%. For the same compound, the IC50 was over 1000 nM.
